Experimental data published in the NIST ThermoML archive (doi:10.1016/j.jct.2007.05.005).

Assay: xn = mol fraction of the nth substance listed
Conditions: 101.3 kPa, Liquid; for speed of sound: Sing-around technique in a fixed-path interferometer

CCOC(C)(C)C [2-ethoxy-2-methylpropane] + CCc1ccccc1
Conditions | mass density, 288.15 K [kg/m3] | mass density, 298.15 K [kg/m3] | mass density, 323.15 K [kg/m3] | speed of sound, 288.15 K [m/s] | speed of sound, 298.15 K [m/s] | speed of sound, 323.15 K [m/s]
x1 = 0.062 | 862.801 | 854.066 | 831.864 | 1341.6 | 1298.5 | 1195.2
x1 = 0.122 | 855.221 | 846.39 | 823.917 | 1324.4 | 1281 | 1177.2
x1 = 0.239 | 840.448 | 831.434 | 808.496 | 1291.1 | 1247.3 | 1142.5
x1 = 0.353 | 826.071 | 816.917 | 793.606 | 1258.9 | 1214.8 | 1109
x1 = 0.455 | 813.347 | 804.045 | 780.291 | 1230.1 | 1185.7 | 1079
x1 = 0.556 | 800.809 | 791.351 | 767.168 | 1201.7 | 1157.1 | 1049.8
x1 = 0.653 | 788.72 | 779.094 | 754.45 | 1174.2 | 1129.3 | 1021.4
x1 = 0.746 | 777.039 | 767.306 | 742.327 | 1148.3 | 1103.2 | 994.59
x1 = 0.834 | 765.895 | 756.026 | 730.658 | 1123.2 | 1077.9 | 968.81
x1 = 0.918 | 755.524 | 745.492 | 719.646 | 1099.7 | 1054 | 944.36
x1 = 0.959 | 750.111 | 740.037 | 714.068 | 1088 | 1042.2 | 932.2
x1 = 1 | 744.955 | 734.806 | 708.642 | 1076.4 | 1031 | 920.73

CCOC(C)(C)C [2-ethoxy-2-methylpropane] + Cc1ccccc1
Conditions | mass density, 288.15 K [kg/m3] | mass density, 298.15 K [kg/m3] | mass density, 323.15 K [kg/m3] | speed of sound, 288.15 K [m/s] | speed of sound, 298.15 K [m/s] | speed of sound, 323.15 K [m/s]
x1 = 0.052 | 864.001 | 854.662 | 831.025 | 1332.1 | 1288.3 | 1181.6
x1 = 0.108 | 855.965 | 846.56 | 822.744 | 1315.2 | 1271.3 | 1164
x1 = 0.217 | 840.966 | 831.445 | 807.297 | 1282.6 | 1238.1 | 1130.6
x1 = 0.301 | 829.662 | 820.051 | 795.645 | 1258.9 | 1214.7 | 1106.5
x1 = 0.41 | 815.355 | 805.638 | 780.903 | 1228 | 1183.6 | 1075
x1 = 0.505 | 803.55 | 793.739 | 768.747 | 1202.7 | 1158.1 | 1049.3
x1 = 0.615 | 789.864 | 779.951 | 754.631 | 1173.5 | 1129.1 | 1019.7
x1 = 0.701 | 779.62 | 769.63 | 744.088 | 1151.5 | 1107 | 997.51
x1 = 0.805 | 767.503 | 757.422 | 731.601 | 1125.3 | 1080.5 | 970.75
x1 = 0.897 | 757.112 | 746.951 | 720.871 | 1102.8 | 1058.2 | 948.16
x1 = 0.95 | 751.062 | 740.859 | 714.65 | 1089.8 | 1045 | 934.78
x1 = 1 | 745.656 | 735.357 | 709.007 | 1078.9 | 1033.2 | 922.48

CCOC(C)(C)C [2-ethoxy-2-methylpropane] + c1ccccc1
Conditions | mass density, 288.15 K [kg/m3] | mass density, 298.15 K [kg/m3] | mass density, 323.15 K [kg/m3] | speed of sound, 288.15 K [m/s] | speed of sound, 298.15 K [m/s] | speed of sound, 323.15 K [m/s]
x1 = 0.049 | 874.335 | 863.764 | 837.01 | 1327.2 | 1280 | 1165.5
x1 = 0.102 | 864.201 | 853.699 | 827.068 | 1308.3 | 1261.4 | 1147.2
x1 = 0.204 | 846.222 | 835.811 | 809.343 | 1274.8 | 1228.3 | 1114.7
x1 = 0.299 | 830.929 | 820.575 | 794.184 | 1245.6 | 1199.4 | 1086.3
x1 = 0.393 | 816.969 | 806.647 | 780.301 | 1219.1 | 1173 | 1060
x1 = 0.494 | 802.925 | 792.628 | 766.309 | 1192.1 | 1146.5 | 1034.2
x1 = 0.589 | 790.686 | 780.408 | 754.084 | 1168.6 | 1123.6 | 1011.7
x1 = 0.696 | 777.916 | 767.647 | 741.314 | 1143.5 | 1099 | 988.29
x1 = 0.799 | 766.357 | 756.096 | 729.753 | 1120.3 | 1075.7 | 965.1
x1 = 0.906 | 755 | 744.747 | 718.393 | 1097.6 | 1053.3 | 942.92
x1 = 0.953 | 750.242 | 739.991 | 713.647 | 1087.8 | 1044 | 933.45
x1 = 1 | 745.656 | 735.357 | 709.007 | 1078.9 | 1033.2 | 922.48
